EC50 data for one compound are collected here from PMC5890244, “Stimulus dependent diversity and stereotypy in the output of an olfactory functional unit” (Nature Communications, 2018).

The target in the assay is T1, M72 odorant receptor (olfr160) (Mus musculus, UniProt A1L3R1).
T1 construct: full-length native receptor in its own olfactory sensory neurons of gene-targeted M72-GFP mice (neonatal epithelium); GFP serves as cell marker
T1 sequence (A1L3R1 1-309): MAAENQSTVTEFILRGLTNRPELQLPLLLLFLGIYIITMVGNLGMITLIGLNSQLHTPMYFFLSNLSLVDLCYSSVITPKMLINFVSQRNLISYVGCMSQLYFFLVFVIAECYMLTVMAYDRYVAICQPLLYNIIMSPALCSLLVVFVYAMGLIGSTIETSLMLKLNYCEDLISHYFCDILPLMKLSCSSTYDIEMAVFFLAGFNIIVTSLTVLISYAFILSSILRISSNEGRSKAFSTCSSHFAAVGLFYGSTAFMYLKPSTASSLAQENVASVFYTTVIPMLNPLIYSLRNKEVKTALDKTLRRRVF
Kind of assay: perforated patch clamp of dendritic knobs of M72-expressing OSNs, Hill fit. Format: cell-based. The following applies: 20-23 °C, pH 7.4; native OSNs; odorant from DMSO stock by pressure ejection; lower end of range, strongest ligand. From the text: perforated patch clamp of dendritic knobs of M72-expressing OSNs, Hill fit on M72 odorant receptor (olfr160) | 2HA is the strongest ligand yet identified for M72 | Normalized dose–response curves for seven M72 ligands fitted by the Hill equation

Regarding `CC(=O)c1ccccc1O` [2HA, 2-hydroxyacetophenone], the EC50 (commonly the midpoint of the concentration-response curve) was determined as 30 nM.
